Article PMC5601360 (Journal of Medicinal Chemistry, 2017)

Legend:
[1] = system: acetic acid-induced writhing in CD1 mice; details: mouse, in vivo, sc; cited from earlier work
mice = details: icv, ref 9d; cited from earlier work
CD1 mice = details: mouse, in vivo, sc
human DOP receptor = target: T1, human DOP receptor (Homo sapiens, UniProt P41143); details: CHO-hDOP membranes; ref 9a; read-out: receptor binding affinity Ki DOP; cited from earlier work
T1 construct: expressed in transfected cells; host or cells: CHO-hDOP cells (gift of Dr. Lawrence Toll, SRI International)
T1 sequence (P41143 whole entry): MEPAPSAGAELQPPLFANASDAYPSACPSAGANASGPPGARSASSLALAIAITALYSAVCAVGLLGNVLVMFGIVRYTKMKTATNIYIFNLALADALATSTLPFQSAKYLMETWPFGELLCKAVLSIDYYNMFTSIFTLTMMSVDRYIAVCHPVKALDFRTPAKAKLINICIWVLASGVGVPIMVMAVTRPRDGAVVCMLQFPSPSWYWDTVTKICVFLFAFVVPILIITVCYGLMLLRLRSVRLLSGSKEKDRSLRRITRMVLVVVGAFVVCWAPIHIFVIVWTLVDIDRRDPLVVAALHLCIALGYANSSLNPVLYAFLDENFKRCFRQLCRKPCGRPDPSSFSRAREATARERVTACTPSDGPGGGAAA

## Oc1cccc(CCN(CCc2ccccc2)CC2CCC2)c1 [Compound 1]
[1]
  antinociceptive ED50 (95% CI): 1.91 (1.02–3.58) mg/kg
mice
  antinociceptive potency compared to U50,488: 2 fold
CD1 mice
  effect on rotarod performance (evoked locomotor activity): did not affect the evoked locomotor activity
Human DOP receptor
  Ki: > 10 µM
